Measured values as given in patent US9981043B2, “Analgesic conjugates” (priority 2013, dated 2018).
Entries after “also recorded” stand apart in the source; their conditions may differ.

Legend:
Format in all cases: in vivo
[1] = system: control mice; experiment: Acute (24 hour) tolerance, tail flick, control mice; conditions: controls
Procedure: (§1) Acute tolerance utilizing the radiant tail flick assay was measured by comparing the ED80-90 dose on day 1 to the same dose measured 24 hours later on the same mouse. For the LPS pretreated mice, no additional LPS was given to the mice for the acute tolerance test. […] However, the effect was less robust 72 hours after the initial LPS injection. Thus confirming that the acute tolerance test was accurate for the LPS pretreated mice.

[2] = system: LPS pretreated mice; experiment: Radiant tail flick antinociception, LPS pretreated mice; conditions: for ED50 (CI) i.c.v. / ED50 (CI) i.t.: LPS pretreated (1 mg/kg 24 hours i.p.); for dose range of antinociception / % MPE: LPS pretreated
Procedure: (§2) Compounds were dissolved in 10% DMSO and then diluted to less than 1% DMSO in the test solutions. […] Compounds were administered in a 5-μl volume in conscious mice, either i.c.v. (Haley T J & McCormick W G, Br J Pharmacol Chemother, 1957, 12(1), 12-15) or i.t. (Hylden J L K & Wilcox G L, Eur. J. Pharmacol., 1980, 67(2-3), 313-316). Peak times were determined by comparing the percent maximal possible effect (% MPE) at 5, 10, 20 and 60 minutes after injection.
The first group mice were pretreated with lipopolysaccaride (LPS, 1 mg/kg, i.p. from Escherichia coli 0111:B4; Sigma-Aldrich, St. Louis, Mo.) for 24 hours before testing for antinociception of compounds 2-6 (Seo Y-J, et al., Pharmacol., Biochem. Behav., 2008, 91, 121-127). This group was compared to a group without pretreatment.
(§3) The tail flick assay is used first to test for antinociception as described by D'Amour and Smith (D'AMOUR FE & SMITH DL (1941) J. Pharmacol. Exp. Ther. 72(1):74-79) and modified by Dewey et al. (Dewey W L, Harris L S, Howes J F, & Nuite JA (1970) J. Pharmacol. Exp. Ther. 175(2):435-442). For the measurement of the tail-flick latency, mice are wrapped in a light cloth and held gently in one hand with the tail positioned in the apparatus (Tail Flick Analgesia Meter, Columbus Instruments, Columbus, Ohio) for radiant heat stimulus. The tail-flick response is elicited by applying radiant heat to the dorsal side of the tail. The intensity of the heat is set so that the mouse flicks its tail within 2 to 3 seconds. The test latency is measured before drug treatment (control) and again after the drug treatment (test) at the peak time of the compound; a 10 second maximum cut-off time is used to prevent damage to the tail. Antinociception is quantified according to the Harris L S & Pierson A K, J. Pharmacol. Exp. Ther., 1964, 143(2):141-148, as the percent maximal possible effect (% MPE), which is calculated as: % MPE=(Test−Control/10−Control)×100.
(§4) At least three groups of four to ten mice are used for each dose response curve. ED50 values with 95% confidence intervals (C.I.) are computed with GraphPad Prism 4 by using nonlinear regression methods.

[3] = system: control mice; experiment: Radiant tail flick antinociception, control (not pretreated) mice; conditions: controls; for ED50 (CI) i.c.v. / ED50 (CI) i.t.: tail flick
Procedure: as §2, §3, §4

[4] = system: LPS pretreated mice; experiment: Acute (24 hour) tolerance, tail flick, LPS pretreated mice; conditions: 24 hours
Procedure: as §1

[5] = system: C3H mice with bone cancer; experiment: von Frey mechanical hyperalgesia, bone cancer (fibrosarcoma) mice; conditions: bone cancer, 250 pmol/mouse, day 3
Procedure: The mouse hind paw model of bone cancer was the third model of pain (Wacnik P W, et al., Pain Research & Management, 2000, 16, 615-637; and Wacnik P W, et al., J Neurosci, 2001, 21(23), 9355-9366). Cell Culture: National Collection of Type Cultures (NCTC) clone 2472 fibrosarcoma cells, originally derived from a connective tissue tumor in a C3H mouse, were obtained from the American Type Cell Culture Collection (Rockville, Md.). Cells were grown and maintained in accordance with standard cell culturing techniques. NCTC cells were grown to 80-90% confluence in 75 cm^2 flasks (Corning, Lowell, Mass.) in Dulbecco's Modification of Eagles Medium (Invitrogen, Carlsbad, Calif.) fortified with 10% Horse Serum and sodium bicarbonate. Cell cultures were housed in a water-jacketed incubator with 5% carbon dioxide at 37° C.
Cells were prepared for implantation by first pouring off the culture medium and washing with phosphate-buffered saline (PBS). Trypsin was added to flask and placed in incubator for 3 minutes. Upon detachment, cells were suspended in an ample amount of culture medium to terminate enzymatic activity and centrifuged for 10 min at 1000 g. Fibrosarcoma cells were re-suspended in a known amount of PBS for counting, quantified on a hemacytometer, pelleted and re-suspended in PBS. Fibrosarcoma cells were again re-suspended to a final concentration of 2×10^5 cells in 20 μl. Initially, animals were anesthetized in a plexi-glass chamber using 3% isoflurane in 3 L/min oxygen. Once each mouse was completely anesthetized, a maintenance rate of 2% isoflurane in 1.5 L/min oxygen was maintained during the short implantation procedure. Tumor cells were manually injected by boring into the calcaneus bone using a 29½ gauge needle connected to a sterile 0.3 ml insulin syringe as previously described (19). Following injection, mice were allowed to recover in cages on a heating pad. Animals showing any signs of dysfunction (e.g. problems with ambulation, lethargy or excessive bleeding) or distress where euthanized according to CO2 guidelines.
C3H mice were was placed under a clean glass cup on a wire mesh grid and allowed to acclimate for thirty minutes. Mechanical hypersensitivity was tested using a von Frey filament #3.61 (which produces a force of […]) to the plantar surface of both the left and right hind paw with enough force to cause it to bow slightly. Starting with the right hind paw, the number of positive responses out of a total of 10 applications was recorded followed by the left hind paw. Positive response was indicated by a sharp withdrawal or flinching behavior of the paw. Baseline von Frey measurements were obtained prior to treatment with CFA, tumor and saline controls. […] Subsequent measurements were taken at various time points after intrathecal (i.t.) injection of test compounds on days 3, 7, 10, 14, 17, and 21. % MPE was calculated ((Time-point value−Day# baseline)/(Day 0 baseline−day# baseline))*100 (Smeester B A, Al-Gizawiy M, & Beitz A J (2012) Evidence-Based Complementary and Alternative Medicine 2012:16). Animals with saline injection served as controls for tumor cell implantation and tumor-induced nociception. Behavioral assessments were conducted during the light cycle at approximately the same time each day. The investigator performing the von Frey testing was blinded to the animal and compound injected.
A well-established rodent hind paw model of bone cancer pain (Wacnik P W, et al., J Neurosci. 2001, 21(23), 9355-66) was to examine the effects of representative bivalent ligands on tumor-induced nociception. The inbred C3H/He line is syngeneic to the fibrosarcoma cells used in these experiments and allows these cells to grow tumors without rejection. Male C3H mice were used for all experiments. Animals were maintained on a 12 hour light/dark cycle with food and water ad libitum.
Cells were prepared for implantation by first pouring off the culture medium and washing with phosphate-buffered saline (PBS). […]

SMILES | Tolerance ([1]; i.c.v.) | Tolerance ([1]; i.t.) | ED50 (CI) i.c.v. ([2]; i.c.v.) [pmol/mouse] | ED50 (CI) i.t. ([2]; i.t.) [pmol/mouse] | dose range of antinociception ([2]; i.t.) | ED50 (CI) i.c.v. ([3]; i.c.v.) [pmol/mouse] | ED50 (CI) i.t. ([3]; i.t.) [pmol/mouse] | Tolerance ([4]; i.c.v.) | Tolerance ([4]; i.t.) | % MPE ([2]; i.c.v., 500 pmol/mouse) [% MPE] | % MPE ([2]; i.c.v., 2500 pmol/mouse) [% MPE] | % MPE ([3]; i.c.v., 250 pmol/mouse) [% MPE] | % MPE ([3]; i.t., 2500 pmol/mouse) [% MPE] | % MPE [5] [% MPE] | % MPE ([3]; i.c.v., 1000 pmol) [% MPE] | % MPE ([2]; i.t., 250 pmol/mouse) [% MPE] | % MPE ([3]; i.t., 250 pmol/mouse) [% MPE]
Cc1cccc(C#Cc2cccc(OCCNC(=O)COCC(=O)NCCNC(=O)COCC(=O)N[C@H]3CC[C@@]4(O)C5Cc6ccc(O)c7c6[C@@]4(CCN5C)[C@H]3O7)c2)n1 [Compound 4a, N-((4aS,7S,7aR,12bS)-4a,9-dihydroxy-3-methyl-2,3,4,4a,5,6,7,7a-octahydro-1H-4,12-methanobenzofuro[3,2-e]isoquinolin-7-yl)-2-((14-(3-((6-methylpyridin-2-yl)ethynyl)phenoxy)-2,7,11-trioxo-9-oxa-3,6,12-triazatetradecyl)oxy)acetamide] | Tolerance | Tolerance | 80.85 | 20.57 | nmol range | 119.50 | 34.31 | Tolerance | created tolerance; also recorded: exhibited tolerance |  |  |  |  |  |  |  | 
Cc1cccc(C#Cc2cccc(OCCNC(=O)COCC(=O)N[C@H]3CC[C@@]4(O)C5Cc6ccc(O)c7c6[C@@]4(CCN5C)[C@H]3O7)c2)n1 [Compound 3, N-((4aS,7S,7aR,12bS)-4a,9-dihydroxy-3-methyl-2,3,4,4a,5,6,7,7a-octahydro-1H-4,12-methanobenzofuro[3,2-e]isoquinolin-7-yl)-2-(2-((2-(3-((6-methylpyridin-2-yl)ethynyl)phenoxy)ethyl)amino)-2-oxoethoxy)acetamide] | Tolerance | No Tolerance |  | 8.17 | nmol range | 529.6 | 114.7 |  | Tolerance was also observed; also recorded: exhibited tolerance | 56.86 ± 8.95 |  |  |  |  |  |  | 
CNC(=O)COCC(=O)NCCCNC(=O)COCC(=O)NCCOc1cccc(C#Cc2cccc(C)n2)c1 [Compound 6, N-methyl-2-(1-(3-((6-methylpyridin-2-yl)ethynyl)phenoxy)-4,8,14-trioxo-6-oxa-3,9,13-triazapentadecan-15-yloxy)acetamide] |  |  |  | 548.7 |  |  |  |  | No tolerance |  | 38.83 ± 11.59 | 24.87 ± 11.77 | 26.13 ± 7.27 | 17.59±18.24 |  |  | 
Cc1cccc(C#Cc2cccc(OCCNC(=O)COCC(=O)NCCCCCCCNC(=O)COCC(=O)N[C@H]3CC[C@@]4(O)C5Cc6ccc(O)c7c6[C@@]4(CCN5C)[C@H]3O7)c2)n1 [Compound 4d, N-((4aS,7S,7aR,12bS)-4a,9-dihydroxy-3-methyl-2,3,4,4a,5,6,7,7a-octahydro-1H-4,12-methanobenzofuro[3,2-e]isoquinolin-7-yl)-2-((1-(3-((6-methylpyridin-2-yl)ethynyl)phenoxy)-4,8,18-trioxo-6-oxa-3,9,17-triazanonadecan-19-yl)oxy)acetamide] |  | No tolerance | 411.9 |  | nmol range |  | 132.7 |  | devoid of tolerance; also recorded: No tolerance |  |  |  |  |  | 53.76 ± 16.36 |  | 
Cc1cccc(C#Cc2cccc(OCCNC(=O)COCC(=O)NCCCNC(=O)COCC(=O)N[C@H]3CC[C@@]4(O)C5Cc6ccc(O)c7c6[C@@]4(CCN5C)[C@H]3O7)c2)n1 [Compound 4b, N-((4aS,7S,7aR,12bS)-4a,9-dihydroxy-3-methyl-2,3,4,4a,5,6,7,7a-octahydro-1H-4,12-methanobenzofuro[3,2-e]isoquinolin-7-yl)-2-((1-(3-((6-methylpyridin-2-yl)ethynyl)phenoxy)-4,8,14-trioxo-6-oxa-3,9,13-triazapentadecan-15-yl)oxy)acetamide] | No Tolerance | No Tolerance | 64.36 | 10.08 | nmol range | 113.3 | 36.08 | No Tolerance | devoid of tolerance; also recorded: No Tolerance |  |  |  |  |  |  |  | 
COc1cccc(C#Cc2cccc(C)n2)c1 [Compound 2, 2-((3-methoxyphenyl)ethynyl)-6-methylpyridine, reference compound] |  |  |  |  |  |  |  |  |  |  |  | 14.59 ± 4.63 |  |  |  | 21.96 ± 10.50 | 13.27 ± 3.39
